Measurements reported in ChEMBL document CHEMBL3885881, “DrugMatrix”.

Species on record: Rattus norvegicus
Assay: DrugMatrix - Regimen: Daily Repeat
Type: toxicity, organism-based, Sprague-Dawley
Design: regimen Daily Repeat, gender Male, age 6-8 weeks
Conditions: in vivo, sc, route mini-PUMP - SUBCUTANEOUS, vehicle 100 % SALINE; for TOTAL PROTEIN / ALANINE AMINOTRANSFERASE / ALBUMIN / ALKALINE PHOSPHATASE / ASPARTATE AMINOTRANSFERASE / BLOOD UREA NITROGEN / CARBON DIOXIDE / CHLORIDE / CHOLESTEROL / LACTATE DEHYDROGENASE / LIPASE / PHOSPHORUS / POTASSIUM / SODIUM / CREATININE / TOTAL BILIRUBIN: tissue Plasma; for ABSOLUTE BASOPHIL / ABSOLUTE EOSINOPHIL / ABSOLUTE LYMPHOCYTE / ABSOLUTE MONOCYTE / ABSOLUTE SEGMENTED NEUTROPHIL / BASOPHIL / EOSINOPHIL / ERYTHROCYTE COUNT / HEMOGLOBIN / LEUKOCYTE COUNT / LYMPHOCYTE / MEAN CORPUSCULAR HEMOGLOBIN / MEAN CORPUSCULAR HEMOGLOBIN CONCENTRATION / MEAN CORPUSCULAR VOLUME / NUCLEATED RED BLOOD CELLS / PLATELET COUNT: tissue Blood
[1] = 0 mg/kg, 120 h, dose level Control, time 5 day
[2] = 0 mg/kg, […], dose level Control, time 14 day
[3] = […], dose 0.77 mg/Kg, dose level High, time 14 day

CNC[C@H](O)c1ccc(O)c(O)c1 [EPINEPHRINE]
TOTAL PROTEIN (0 mg/kg, 72 h, dose level Control, time 3 day): 6.05 G/DL
ABSOLUTE BASOPHIL [1]: 0 CELLS/uL
ABSOLUTE EOSINOPHIL [1]: 0 CELLS/uL
ABSOLUTE LYMPHOCYTE [1]: 14257.33 CELLS/uL
ABSOLUTE MONOCYTE [1]: 326 CELLS/uL
ABSOLUTE SEGMENTED NEUTROPHIL [1]: 3216.67 CELLS/uL
BASOPHIL [1]: 0%
EOSINOPHIL [1]: 0%
ERYTHROCYTE COUNT [1]: 6.11 x10E6/uL
HEMOGLOBIN [1]: 13.18 G/DL
LEUKOCYTE COUNT [1]: 17.8 x10E3/uL
LYMPHOCYTE [1]: 80.5%
MEAN CORPUSCULAR HEMOGLOBIN [1]: 21.62 pg
MEAN CORPUSCULAR HEMOGLOBIN CONCENTRATION [1]: 36.42 G/DL
MEAN CORPUSCULAR VOLUME [1]: 59.37 fL
NUCLEATED RED BLOOD CELLS [1]: 0 /100WBC
PLATELET COUNT [1]: 1311 x10E3/uL
ALANINE AMINOTRANSFERASE [1]: 47 u/L
ALBUMIN [1]: 3.83 G/DL
ALKALINE PHOSPHATASE [1]: 260.33 u/L
ASPARTATE AMINOTRANSFERASE [1]: 76.17 u/L
BLOOD UREA NITROGEN [1]: 14.67 mg/dL
CARBON DIOXIDE [1]: 31.33 mmol/L
CHLORIDE [1]: 101.17 MEQ/L
CHOLESTEROL [1]: 75 mg/dL
LACTATE DEHYDROGENASE [1]: 147.33 u/L
LIPASE [1]: 9.33 u/L
PHOSPHORUS [1]: 10.97 mg/dL
POTASSIUM [1]: 6 MEQ/L
SODIUM [1]: 145.52 MEQ/L
TOTAL PROTEIN [1]: 5.83 G/DL
ABSOLUTE BASOPHIL [2]: 0 CELLS/uL
ABSOLUTE EOSINOPHIL [2]: 64.5 CELLS/uL
ABSOLUTE LYMPHOCYTE [2]: 12507.83 CELLS/uL
ABSOLUTE MONOCYTE [2]: 380.33 CELLS/uL
ABSOLUTE SEGMENTED NEUTROPHIL [2]: 2414 CELLS/uL
BASOPHIL [2]: 0%
EOSINOPHIL [2]: 0.5%
ERYTHROCYTE COUNT [2]: 6.1 x10E6/uL
HEMOGLOBIN [2]: 12.88 G/DL
LEUKOCYTE COUNT [2]: 15.37 x10E3/uL
LYMPHOCYTE [2]: 80.83%
MEAN CORPUSCULAR HEMOGLOBIN [2]: 21.18 pg
MEAN CORPUSCULAR HEMOGLOBIN CONCENTRATION [2]: 36.43 G/DL
MEAN CORPUSCULAR VOLUME [2]: 58.17 fL
NUCLEATED RED BLOOD CELLS [2]: 0.17 /100WBC
PLATELET COUNT [2]: 1016 x10E3/uL
ALANINE AMINOTRANSFERASE [2]: 53.33 u/L
ALBUMIN [2]: 3.93 G/DL
ALKALINE PHOSPHATASE [2]: 319.83 u/L
ASPARTATE AMINOTRANSFERASE [2]: 84 u/L
BLOOD UREA NITROGEN [2]: 15.5 mg/dL
CARBON DIOXIDE [2]: 34 mmol/L
CHLORIDE [2]: 101.83 MEQ/L
CHOLESTEROL [2]: 57 mg/dL
CREATININE [2]: 0.21 mg/dL
LACTATE DEHYDROGENASE [2]: 104.67 u/L
LIPASE [2]: 9.17 u/L
PHOSPHORUS [2]: 11.12 mg/dL
POTASSIUM [2]: 5.81 MEQ/L
SODIUM [2]: 144.85 MEQ/L
TOTAL BILIRUBIN [2]: 0.18 mg/dL
TOTAL PROTEIN [2]: 5.92 G/DL
ABSOLUTE BASOPHIL [3]: 0 CELLS/uL
ABSOLUTE EOSINOPHIL [3]: 121.6 CELLS/uL
ABSOLUTE LYMPHOCYTE [3]: 13213.6 CELLS/uL
ABSOLUTE MONOCYTE [3]: 369.4 CELLS/uL
ABSOLUTE SEGMENTED NEUTROPHIL [3]: 2115.4 CELLS/uL
BASOPHIL [3]: 0%
EOSINOPHIL [3]: 0.8%
ERYTHROCYTE COUNT [3]: 6.78 x10E6/uL
HEMOGLOBIN [3]: 14.32 G/DL
LEUKOCYTE COUNT [3]: 15.82 x10E3/uL
LYMPHOCYTE [3]: 84.2%
MEAN CORPUSCULAR HEMOGLOBIN [3]: 21.14 pg
MEAN CORPUSCULAR HEMOGLOBIN CONCENTRATION [3]: 36.3 G/DL
MEAN CORPUSCULAR VOLUME [3]: 58.22 fL
NUCLEATED RED BLOOD CELLS [3]: 0 /100WBC
PLATELET COUNT [3]: 976 x10E3/uL
ALANINE AMINOTRANSFERASE [3]: 53.2 u/L
ALBUMIN [3]: 4.38 G/DL
ALKALINE PHOSPHATASE [3]: 383.4 u/L
ASPARTATE AMINOTRANSFERASE [3]: 82 u/L
BLOOD UREA NITROGEN [3]: 15.6 mg/dL
CARBON DIOXIDE [3]: 34.2 mmol/L
CHLORIDE [3]: 99.8 MEQ/L
CHOLESTEROL [3]: 80.2 mg/dL
CREATININE [3]: 0.21 mg/dL
LACTATE DEHYDROGENASE [3]: 111.2 u/L
LIPASE [3]: 9 u/L
PHOSPHORUS [3]: 11.84 mg/dL
POTASSIUM [3]: 6.19 MEQ/L
SODIUM [3]: 147.16 MEQ/L
TOTAL BILIRUBIN [3]: 0.14 mg/dL
TOTAL PROTEIN [3]: 6.7 G/DL
